Laboratory results reported in US20190046649A1, “DELIVERY DEVICE AND USE THEREOF FOR LOADING CELL PLASMA MEMBRANES” (UNIVERSITY OF MARYLAND, BALTIMORE COUNTY, priority 2017, published 2019).
No end group written: not given here.

Tests used:
bystander B cells (TLR2) = test: TLR2 ligand-depoted T cells co-cultured with bystander B cells, activation markers by flow cytometry; type: cell-based, mouse
Protocol: (§1) A) Splenic immune cells were depoted with 10 μg/ml of Pam2CSK4 for 1 h. Depoted cells were resting for up to 1 h versus nondepoted cells with addition of 100 ng/ml of soluble Pam2CSK4. Phosphorylated p38 was measured compared to negative controls by western blotting. n=2 independent experiments. Data depict m±s.d. B) Isolated T-cells were depoted with TLR2 ligand and MFI of activation markers, MHCII and CD69, on bystander B-cells were measured after 2-day culture by flow cytometry and normalized to unstimulated B-cells (fold MFI). n=5-6 independent experiments, one-way ANOVA with Kruskal-Wallis test. Data depict m±s.d. C) Splenocytes were cultured in 2 μg/ml of Concanavalin A and 10 ng/ml of IL-7 for 2 days, and isolated T-cells were then TLR2 ligand-depoted for 1 hour. Depoted T-cells were then resting for 0 h, 3 h, 24 h, or 48 h, before T-cells were chemically fixed and co-cultured for 2 days with CD45.1^+ bystander B-cells. Bystander B-cells were used as a reporter to determine TLR2 ligand surface persistence on depoted T-cells by their fold MFI of MHCII and CD69. n=5 independent experiments. Data depict m±s.d.
A) Pam2CSK4-biotin at indicated concentrations was depoted into CD3+CD8+ or CD3+CD8− T-cells and stained with streptavidin (SAV) PE as determined by flow cytometry. B) Paracrine signaling of resting vs Concanavalin A/IL-7-activated TLR2 ligand-depoted CD8+ T-cells. Activated CD8+ T-cells were isolated from splenocytes cultured in 2 μg/ml of Concanavalin A and 10 ng/ml of IL-7 for 2 days. TLR2 ligand was depoted and processed by CD8+ T-cells for 0 h, 3 h, 6 h, 24 h, or 48 h, before T-cells were chemically fixed and cultured for 2 days with bystander B-cells to determine fold MFI intensity of MHC II, CD69, and CD86 (C).
CD45.1+ B cells were depoted with lipo-CpG, CpG, or nothing. These were cultured alone or 1:1 mixed with bystander (no depot) CD45.1− B cells. B cell activation was shown as fold intensity CD86 measured by flow cytometry after 3 d. B) CD8+ T cells were depoted with Pam2CSK4 or nothing, and then co-cultured 1:1 with bystander CD45.1+ B cells for 3 d. B cell activation was measured by CD86 and compared to a continuous exposure Pam2CSK4 control. […]
After determining that depoting was a robust process, the function of depoted Pam2CSK4 to activate neighboring immune cells was tested. Depoted T cells were co-cultured with responders (B cells) and the expression of activation markers was determined after 2 days of co-culture at a 1:1 T cell:B cell ratio.
In FIG. 11, Pan T cells were isolated from mice and either left alone (blue, red) or depoted with Pam2CSK4 for 1 h (green). […] Expression levels of activation markers were analyzed by flow after 2 days and fluorescence intensity normalized to B cells activated with polyclonal stimulus. […]

CD8+ T cells = test: Proliferation of depoted T cells after 3 d stimulation with 1:1 anti-CD3/28 beads (CFSE dilution); type: cell-based, murine; details: 1:1 beads
Protocol: T-Cells were cultured with 5 μM of soluble lipo-CpG or depoted with lipo-CpG, and CFSE dilution was measured by flow cytometry. B) Quantification of division index of CD4^+ T-cells as measured by CFSE dilution from flow cytometry. n=3 independent experiments, one-way ANOVA with Krustal-Wallis test. *p<0.05 between the unstim condition.
CD45.1+ B cells were depoted with lipo-CpG, CpG, or nothing. These were cultured alone or 1:1 mixed with bystander (no depot) CD45.1− B cells. B cell activation was shown as fold intensity CD86 measured by flow cytometry after 3 d. B) CD8+ T cells were depoted with Pam2CSK4 or nothing, and then co-cultured 1:1 with bystander CD45.1+ B cells for 3 d. B cell activation was measured by CD86 and compared to a continuous exposure Pam2CSK4 control. C) Representative histograms showing CFSE dilution (proliferation) of CD8+ T cells after 3 d stimulation with 1:1 anti-CD3/28 beads. Where indicated, cells were depoted or cultured with continuous soluble lipo-CpG (left) or Pam2CSK4 (right). Bars=median, whiskers=range; n=3.
B cells depoted with lipo-CpG had sustained activation up to 3 d (FIG. 10 A). […] The ability of a surface sensed lipo-Av to activate neighboring cells was also tested, using Pam2CSK4 which engages surface TLR2.

[1] = system: CD8+ T cells with B16F10 tumor cells; test: Proliferation of depoted CD8+ T cells with αCD3/28 beads in the presence of immunosuppressive tumor cells; type: cell-based, murine; details: 3 days coculture with αCD3/28 beads
Protocol: A) Flow cytometry histograms showing CFSE dilution of CD8^+ T-cells after 3-day stimulation with ratios of 1:1 αCD3/CD28 beads and 1:5 B16F10 tumor cells (blue text). T-Cells were cultured with 10 μg/ml of soluble Pam2CSK4 or Pam3CSK4 either alone or in combination with 5 μM of soluble lipo-CpG (solid fill), or depoted with the same respective combinations (tinted fill). B) Quantification of percent of CD8^+ T-cells that divided >5 times compared to undivided CD8^+ T-cells as measured by CF SE dilution from flow cytometry. C) IL-2 production from CD8^+ T-cell supernatents after 3 days of proliferation. n=1 independent experiment.
The proliferative capacity of depoted CD8+ T cells was evaluated after 3 days of coculture with αCD3/28 beads in the presence or absence of immunosuppressive tumor cells.

T-cells = test: Insertion (depoting) of TLR2 ligands into cell membranes and intracellular localisation; type: cell-based, murine
Protocol: A) Structure of synthesized lipo-ligand, which are diacyl 18-carbon tails conjugated to: unmethylated CpG oligonucleotide ([…]) (SEQ ID NO: 1), or a poly(ethylene) glycol (PEG) linker plus a melanoma antigen, GP10025-33 (KVPRNQDWL) (SEQ ID NO: 2). B) Schematic of lipo-ligand depoting into cell membrane surface. C-D, CD4+ and CD8+ T-cells are identified by flow cytometry and median fluorescence intensity (MFI) of labeled ligand is determined on each cell subset as a function of time and ligand concentration. C) Fluoroscein (FAM)-labeled lipo-CpG, a TLR9 ligand, depoted into murine splenic immune cells. D) Pam2CSK4, a TLR2 ligand, depoted into murine splenic immune cells. E) MFI of lipo-GP100 is determined by flow cytometry as a function of cell density and depot volume. F-G, Isolated T-cells are depoted by varying depot time or ligand concentration, and quantified as average number of ligand per T-cell by enzyme-linked immunosorbant assay (ELISA) F) Lipo-CpG depoted into isolated T-cells. G) Pam2CSK4 and Pam3CSK4, another TLR2 ligand, respectively depoted into isolated T-cells. H) Average number of each respective ligand per splenic immune cell after 1 hour depot. n=3-5 independent experiments. Data depict m±s.d.
as §1, with “Depoted T-cells were then resting for 0 h, 3 h, 24 h, or 48 h, before T-cells were chemically fixed and co-cultured for 2 days with CD45.1^+ bystander B-cells. Bystander B-cells were used as a reporter to determine TLR2 ligand surface persistence on depoted T-cells by their fold MFI of MHCII and CD69. n=5 independent experiments. Data depict m±s.d.” left out

[2] = system: resting memory CD4+ T cells; details: cited from earlier work
cognate CD8+ T-cells = test: Antigen presentation by lipo-GP100-depoted B-cells to cognate CD8+ T-cells (T-cell proliferation, CFSE dilution); type: cell-based, murine
Protocol: A) Activated B-cells were isolated from splenocytes and cultured with 1 μg/ml TLR7 ligand R848 and αIgM antibody for 2 days. Resting versus activated B-cells were depoted with lipo-GP100-FAM for 1 hour. Lipo-GP100-FAM and forward scatter fold increase was measured by flow cytometry. B) LipoGP100-depoted resting B-cells presented to and proliferated cognate CD8^+ T-cells at 33 μM of 1 h depoted lipo-GP100 after 3-day culture as measured by CFSE dilution with flow cytometry. Indicated values are percent CD8^+ T-cells that divided at least once. C) BMDCs were cultured with 20 ng/ml of GM-CSF for 7 days before harvested and either depoted with 33 μM of lipo-GP100 or pulsed with 33 μM of short GP100 (KVPRNQDWL) (SEQ ID NO: 2) peptide, along with resting B-cells. These modified APCs were co-cultured with pmel-1 GP100-specific CD8^+ T-cells for 3 days to determine pmel-1 T-cell proliferation by flow cytometry. n=1 independent experiment.
Antigen processing in APC B-cells by A) endocytosis, B) direct binding affinity on APC surface, or C) depoting. 33 uM of indicated GP100 antigen is conferred to APC B-cells for 1 h, then processed by B-cells in aforementioned antigen processing mechanisms for 0 h, 3 h, or 16 h, before B-cells are chemically fixed and cultured with cognate CD8^+ T-cells for 3 days to determine T-cell proliferation. n=1 independent experiment.
An diacyl (C18) lipid-conjugated ligands (lipo-ligands) was engineered that can be depoted into cell membranes in a time- and concentration-dependent fashion for precise and robust delivery up to 241.5±9.6 (mean±SD) fold increase compared to nondepoted cells. […] B) Representative histograms of fluorescein-labeled (FAM-labeled) lipo-GP100 fluorescence on B-cell surface as functions of depot time and lipo-GP100 concentration measured by flow cytometry. Median fluorescence intensity (MFI) of lipo-GP100 FAM fold increase on B-cells from non-depoted B-cells by flow cytometry. […]

Substance	B cell activation by depoted CD8+ T cells relative to continuous exposure control (bystander B cells (TLR2); 1:1 co-culture 3 d, CD86)	duration of trans signaling and activation of B cells by depoted CD8+ T cells (bystander B cells (TLR2); 1:1 co-culture, CD86)	activation of neighboring responder B cells by depoted T cells relative to soluble ligand (bystander B cells (TLR2); 2 days co-culture, 1:1 T cell:B cell ratio, depoted 1 h)	persistence of bystander-activating activity of depoted T cells (bystander B cells (TLR2); data not shown)	effect of depoting on CD8+ T cell proliferation in response to αCD3/28 beads (CD8+ T cells)	proliferative capacity of depoted T cells in the presence of tumor cells [1]	insertion into cell membranes (T-cells)	intracellular localisation by microscopy (T-cells; 24 h post-depoting)	HIV latency reactivation ("shock") activity [2]	manner of antigen presentation by APC B-cells to cognate CD8+ T-cells (cognate CD8+ T-cells; 33 uM antigen 1 h, processed 0 h, 3 h or 16 h, fixed, 3-day culture)	B-cells as APCs versus BMDCs presenting antigen, MHCI-restricted (cognate CD8+ T-cells; 33 μM depoted, 3-day co-culture with pmel-1 CD8+ T-cells)	duration of antigen presentation from B-cells to cognate CD8+ T-cells (cognate CD8+ T-cells; GP100 25-33 antigen delivered by depoting)
Pam2CSK4	nearly matching continuously exposed control	3 days	nearly equivalent to high doses of Pam2CSK4 in solution	persists for multiple days	did not	recovered proliferative capacity in the presence of tumor cells	can be rapidly inserted into cell membranes	colocalizing with early endosome antigen 1 (EEA1)	–	–	–	–
Pam3CSK4	–	–	–	–	–	recovered proliferative capacity in the presence of tumor cells	can be rapidly inserted into cell membranes	–	effective “shock” agent	–	–	–
lipo-GP100: diacyl 18-carbon tails conjugated to a PEG linker plus melanoma antigen GP10025-33 (KVPRNQDWL) (SEQ ID NO: 2) (also: diacyl C18 lipid tails via PEG linker, site not given here)	–	–	–	–	–	–	–	–	–	delayed and prolonged manner	comparable to bone marrow derived cells (BMDCs)	> 16 h
